These results are taken from patent publication US8815796B2, “Polyheterocyclic compounds highly potent as HCV inhibitors” (AB Pharma Ltd., priority 2010, dated 2014).

For this assay, the target named is T1, HCV NS3-4A protease (Hepatitis C virus genotype 1a, UniProt P27958).
T1 construct: HCV NS3-4A protease
Put plainly: HCV NS3-4A protease assay in vitro (FRET-S substrate). It is filed as biochemical. On the procedure:
HCV NS3-4A Protease Assay In Vitro.
The assay was conducted in Buffer A containing 30 mM NaCl, 5 mM CaCl2, 10 mM DTT, 50 mM Tris (pH7.8), using the Ac-Asp-Glu-Asp(EDANS)-Glu-Glu-Abu-ψ-[COO]-Ala-Ser-Lys (DABCYL)-NH2 (FRET-S) fluorescent peptide (AnaSpec, USA) as substrate. Briefly, 140 μL buffer A, 20 μL compounds dissolved in buffer A with different concentration and 20 μL HCV NS3-4A protease diluted in buffer A were added into 96-well plate respectively and mixed well. The reaction was initiate with adding 20 μL of FRET-S. Reactions were continuously monitored at 37° C. using a BMG Polarstar Galaxy (MTX Lab Systems, Inc. USA), with excitation and emission filters of 355 nm and 520 nm, respectively. The 50% inhibitory concentration (IC50) was calculated with Reed & Muench methods.

The mark [1] stands for this setting: HCV NS3-4A protease inhibition, 37° C., class symbols, read-out: NS3-NS4A IC50.

Where two headings read alike, the source gives them in different places.

T1 sequence (P27958 1027-1657): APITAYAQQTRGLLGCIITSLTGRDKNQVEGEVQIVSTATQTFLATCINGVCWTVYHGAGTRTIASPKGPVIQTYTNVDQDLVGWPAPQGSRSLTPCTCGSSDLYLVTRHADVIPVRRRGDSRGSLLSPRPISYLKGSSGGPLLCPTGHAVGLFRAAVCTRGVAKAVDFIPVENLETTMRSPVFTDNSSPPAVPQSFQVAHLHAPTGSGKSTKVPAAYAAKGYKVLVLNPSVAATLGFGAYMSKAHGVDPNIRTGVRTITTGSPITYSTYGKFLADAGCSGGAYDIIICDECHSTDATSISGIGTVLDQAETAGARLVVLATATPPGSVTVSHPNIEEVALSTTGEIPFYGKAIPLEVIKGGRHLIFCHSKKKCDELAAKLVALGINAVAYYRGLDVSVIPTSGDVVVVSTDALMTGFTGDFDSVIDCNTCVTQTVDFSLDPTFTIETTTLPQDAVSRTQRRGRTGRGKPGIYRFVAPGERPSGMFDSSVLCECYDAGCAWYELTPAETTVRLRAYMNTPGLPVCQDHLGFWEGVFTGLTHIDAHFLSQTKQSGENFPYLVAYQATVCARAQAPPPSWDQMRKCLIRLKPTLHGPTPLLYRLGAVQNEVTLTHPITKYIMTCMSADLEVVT
T1 sequence (P27958 1658-1711): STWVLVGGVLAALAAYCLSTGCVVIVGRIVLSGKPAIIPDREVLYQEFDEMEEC

In the case of `C=C[C@H]1C[C@@]1(NC(=O)C1C[C@@H](OC(=O)N2Cc3cccc(F)c3C2)CN1C(=O)[C@@H](NC(=O)OC(C)(C)C)C(C)(C)C)C(=O)NS(=O)(=O)C1CC1` (stereo partly shown) [Compound 30aj], the half-maximal inhibitory concentration (IC50) (in general, the concentration that gives 50% inhibition) under setting [1] is less than 30 nM. Consider `CC[C@H]1C[C@@]1(NC(=O)C1C[C@@H](OC(=O)N2Cc3cc4c(cc3C2)OCO4)CN1C(=O)[C@@H](NC(=O)[C@@H](NS(=O)(=O)c1ccc2ccccc2c1)C1CCCCC1)C(C)(C)C)C(=O)NS(=O)(=O)C1CC1` (stereo partly shown) [Compound 30s], for which the IC50 under setting [1] was less than 30 nM. Compound `CCOC(=O)N[C@H](C(=O)N[C@H](C(=O)N1C[C@H](OC(=O)N2Cc3cc4c(cc3C2)OCO4)CC1C(=O)N[C@@]1(C(=O)NS(=O)(=O)C2CC2)C[C@@H]1CC)C(C)(C)C)C1CCCCC1` (stereo partly shown) [Compound 30v] gave an IC50 of less than 30 nM. On the same count and under the same terms, the value for `C=C[C@H]1C[C@@]1(NC(=O)C1C[C@@H](OC(=O)N2Cc3ccc4c(c3C2)OCO4)CN1C(=O)[C@@H](NC(=O)[C@@H](NC(=O)c1cnccn1)C1CCCCC1)C(C)(C)C)C(=O)NS(=O)(=O)C1CC1` (stereo partly shown) [Compound 30e] was less than 30 nM. Same read-out and setting: the value for `CC[C@H]1C[C@@]1(NC(=O)C1C[C@@H](OC(=O)N2Cc3cc4c(cc3C2)OCO4)CN1C(=O)[C@@H](NC(=O)[C@@H](NC(=O)OCc1ccccc1)C1CCCCC1)C(C)(C)C)C(=O)NS(=O)(=O)C1CC1` (stereo partly shown) [Compound 30y] was less than 30 nM.

Consider `CC(C)S(=O)(=O)NC(=O)[C@@]12C[C@H]1/C=C\CCCCC[C@H](NC(=O)OC(C)(C)C)C(=O)N1C[C@H](OC(=O)N3Cc4ccc5c(c4C3)OCO5)C[C@H]1C(=O)N2` [Compound 12e], for which the IC50 under setting [1] was less than 30 nM. As to `C=C[C@H]1C[C@@]1(NC(=O)C1C[C@@H](OC(=O)N2Cc3cc4c(cc3C2)OCCCO4)CN1C(=O)[C@@H](NC(=O)[C@@H](NC(=O)c1cnccn1)C1CCCCC1)C(C)(C)C)C(=O)NS(=O)(=O)C1CC1` (stereo partly shown) [Compound 30g], the IC50 was less than 30 nM.

`O=C1N[C@]2(C(=O)NS(=O)(=O)C3CC3)C[C@H]2/C=C\CCCCC[C@H](NS(=O)(=O)c2ccccc2)C(=O)N2C[C@H](OC(=O)N3Cc4cc5c(cc4C3)OCO5)C[C@@H]12` [Compound 16b]: the IC50 under setting [1] is less than 30 nM.

For the compound `CC[C@H]1C[C@@]1(NC(=O)C1C[C@@H](OC(=O)N2Cc3cc4c(cc3C2)OCO4)CN1C(=O)[C@@H](NC(=O)[C@@H](NS(C)(=O)=O)C1CCCCC1)C(C)(C)C)C(=O)NS(=O)(=O)C1CC1` (stereo partly shown) [Compound 30n], the IC50 under setting [1] was less than 30 nM.

In the case of `O=C1N[C@]2(C(=O)NS(=O)(=O)C3CC3)C[C@H]2/C=C\CCCCCN(C2CC2)C(=O)C2C[C@H](OC(=O)N3Cc4ccc5c(c4C3)OCO5)C[C@@H]12` (stereo partly shown) [Compound 21d], the IC50 under setting [1] is 30 to 200 nM. The same measure, in the same setting: the value for `C=C[C@H]1C[C@@]1(NC(=O)C1C[C@@H](OC(=O)N2Cc3cccc(F)c3C2)CN1C(=O)[C@@H](NC(=O)OC1CCCC1)C(C)(C)C)C(=O)NS(=O)(=O)C1CC1` (stereo partly shown) [Compound 30aq] was less than 30 nM; that for `C=C[C@H]1C[C@@]1(NC(=O)C1C[C@@H](OC(=O)N2Cc3ccc4c(c3C2)OCO4)CN1C(=O)[C@@H](NC(=O)OC1CCCC1)C(C)(C)C)C(=O)NS(=O)(=O)C1CC1` (stereo partly shown) [Compound 30an] was less than 30 nM.

Compound `CC[C@H]1C[C@@]1(NC(=O)C1C[C@@H](OC(=O)N2Cc3cc4c(cc3C2)OCO4)CN1C(=O)[C@@H](NC(=O)[C@@H](NC(=O)OC(C)(C)C)C1CCCCC1)C(C)(C)C)C(=O)NS(=O)(=O)C1CC1` (stereo partly shown) [Compound 30m] displayed a 50% inhibitory concentration (IC50) of less than 30 nM. For the compound `O=C1N[C@]2(C(=O)NS(=O)(=O)C3CC3)C[C@H]2/C=C\CCCCCN(C2CC2)C(=O)N2CC(OC(=O)N3Cc4cccc(F)c4C3)C[C@@H]12` (stereo partly shown) [Compound 27-Ref-2, reference compound], the IC50 under setting [1] fell in the range of 30 to 200 nM. With `CC(C)(C)OC(=O)N([C@H]1CCCCC/C=C\[C@@H]2C[C@@]2(C(=O)NS(=O)(=O)C2CC2)NC(=O)[C@@H]2C[C@@H](OC(=O)N3Cc4cccc(F)c4C3)CN2C1=O)S(C)(=O)=O` [Compound 12u], the IC50 under setting [1] was less than 30 nM.

`O=C1N[C@]2(C(=O)NS(=O)(=O)C3CC3)C[C@H]2/C=C\CCCCC[C@H](N2CCCS2(=O)=O)C(=O)N2C[C@H](OC(=O)N3Cc4cc5c(cc4C3)OCCO5)C[C@@H]12` [Compound 12j]: under setting [1], the IC50 was 30 to 200 nM.

For `COc1ccc(S(=O)(=O)N[C@H]2CCCCC/C=C\[C@@H]3C[C@@]3(C(=O)NS(=O)(=O)C3CC3)NC(=O)[C@@H]3C[C@@H](OC(=O)N4Cc5cc6c(cc5C4)OCO6)CN3C2=O)cc1` [Compound 16c], the IC50 under setting [1] was less than 30 nM.

With `CN1CCCCC/C=C\[C@@H]2C[C@@]2(C(=O)NS(=O)(=O)C2CC2)NC(=O)[C@@H]2CC(OC(=O)N3Cc4cccc(F)c4C3)CN2C1=O` (stereo partly shown) [Compound 27-Ref, reference compound], the IC50 under setting [1] was 30 to 200 nM. `CC[C@H]1C[C@@]1(NC(=O)C1C[C@@H](OC(=O)N2Cc3cc4c(cc3C2)OCO4)CN1C(=O)[C@@H](NC(=O)[C@@H](NC(=O)OC)C1CCCCC1)C(C)(C)C)C(=O)NS(=O)(=O)C1CC1` (stereo partly shown) [Compound 30x]: the IC50 was less than 30 nM. Consider `CC(C)S(=O)(=O)NC(=O)[C@@]12C[C@H]1/C=C\CCCCCN(C)C(=O)N1CC(OC(=O)N3Cc4cc5c(cc4C3)OCO5)C[C@H]1C(=O)N2` (stereo partly shown) [Compound 27c], for which, under setting [1], the IC50 was 30 to 200 nM. Take `CC[C@H]1C[C@@]1(NC(=O)C1C[C@@H](OC(=O)N2Cc3cc4c(cc3C2)OCO4)CN1C(=O)[C@@H](NC(=O)[C@@H](NC(=O)Oc1ccccc1)C1CCCCC1)C(C)(C)C)C(=O)NS(=O)(=O)C1CC1` (stereo partly shown) [Compound 30z]: the IC50 was less than 30 nM. Same read-out and setting: the value for `CC[C@H]1C[C@@]1(NC(=O)C1C[C@@H](OC(=O)N2Cc3ccc4c(c3C2)OCCCO4)CN1C(=O)[C@@H](NC(=O)[C@@H](NC(=O)c1cnccn1)C1CCCCC1)C(C)(C)C)C(=O)NS(=O)(=O)C1CC1` (stereo partly shown) [Compound 30j] was less than 30 nM; that for `C=C[C@H]1C[C@@]1(NC(=O)C1C[C@@H](OC(=O)N2Cc3cc4c(cc3C2)OCCO4)CN1C(=O)[C@@H](NC(=O)[C@@H](NC(=O)c1cnccn1)C1CCCCC1)C(C)(C)C)C(=O)NS(=O)(=O)C1CC1` (stereo partly shown) [Compound 30c] was less than 30 nM. `CC(C)(C)OC(=O)N([C@H]1CCCCC/C=C\[C@@H]2C[C@@]2(C(=O)NS(=O)(=O)C2CC2)NC(=O)[C@@H]2C[C@@H](OC(=O)N3Cc4cc5c(cc4C3)OCO5)CN2C1=O)S(C)(=O)=O` [Compound 12s]: the IC50 under setting [1] is less than 30 nM. The same measure, in the same setting: in the case of `CN1CCCC/C=C\[C@@H]2C[C@@]2(C(=O)NS(=O)(=O)C2CC2)NC(=O)[C@@H]2C[C@@H](OC(=O)N3Cc4cc5c(cc4C3)OCO5)CC2C1=O` (stereo partly shown) [Compound 21c] it was less than 30 nM.
